Assay results published in patent US8808702B2, “Sulfide, sulfoxide and sulfone chalcone analogues, derivatives thereof and therapeutic uses thereof” (Temple University-of the Commonwealth System of Higher …, priority 2006, dated 2014).
Where two headings read alike, the source gives them in different places.

What was measured:
[1] = test system: K562 (chronic myelogenous leukaemia); assay: Effect of compounds on tumor cell lines (assay of Latham et al.), K562; format: cell-based; conditions: Homo sapiens, Table 4, K562 cells, examined 96 hours after treatment, 1 μM to 100 μM in DMSO
In short: (§1)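 After 96 h of exposure to compound (1–100 μM in DMSO; one compound at 0.1–100 μM), effects were scored by inverted-microscope inspection, with trypan blue viable counts by hemacytometer when required. Cells were seeded at 2.5×10^4 per well and dosed 24 h after plating.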

DU145 (prostate cancer) = assay: Effect of compounds on tumor cell lines (assay of Latham et al.), DU145; format: cell-based; conditions: Homo sapiens, DU-145; Table 4; DU145 cells, examined 96 hours after treatment, 1 μM to 100 μM in DMSO; read-out: DU 145 potency (IC50)
In short: as §1

Row | melting point [°C] | IC50 ([1]; read-out: K 562 potency (IC50)) [µM] | IC50 (DU145 (prostate cancer)) [µM] | IC50 ([1]; read-out: K 562 potency (IC50), given as number) [µM] | SMILES
1 | 180 to 182 | 25 to 50 | 25 to 50 | – | O=C(/C(=C\c1ccc(Br)cc1)S(=O)(=O)Cc1ccc(I)cc1)c1ccc(I)cc1 [Example 419, (E)-1-(4-Iodophenyl)-2-(4-iodobenzylsulfonyl)-3-(4-bromophenyl)prop-2-en-1-one]
2 | 160 to 162 | – | 25 to 50 | > 50 | O=C(/C(=C\c1ccc(I)cc1)S(=O)(=O)Cc1ccc(I)cc1)c1ccc(Br)cc1 [Example 420, (E)-1-(4-bromophenyl)-2-(4-iodobenzylsulfonyl)-3-(4-iodophenyl)-prop-2-en-1-one]
3 | 130 to 139 | 25 to 50 | 25 to 50 | – | Cc1ccsc1/C=C(\C(=O)c1ccc(Cl)cc1)S(=O)(=O)Cc1ccc(Cl)cc1 [Example 388]
4 | 207 to 210 | 25 to 50 | 25 to 50 | – | COc1cc(OC)c(/C=C(\C(=O)c2ccc(Br)cc2)S(=O)(=O)Cc2ccc(Cl)cc2)c(OC)c1 [Example 378]
5 | 164 to 168 | 10 to 25 | 25 to 50 | – | O=C(/C(=C\c1ccc(Br)cc1)S(=O)(=O)Cc1ccc(F)cc1)c1ccc(Br)cc1 [Example 409]

Further lines, the molecule ahead of its results:

Row | SMILES | melting point [°C] | IC50 ([1]; read-out: K 562 potency (IC50)) [µM] | IC50 (DU145 (prostate cancer)) [µM] | IC50 ([1]; read-out: K 562 potency (IC50), given as number) [µM]
6 | Cc1ccc(CS(=O)(=O)/C(=C/c2cccc(Cl)c2Cl)C(=O)c2ccc(Cl)cc2)cc1 [Example 423] | 162 to 165 | 1 to 10 | 1 to 10 | –
7 | Cc1ccc(CS(=O)(=O)/C(=C/c2ccccc2OCc2ccccc2)C(=O)c2ccc(Cl)cc2)cc1 [Example 426] | 112 to 129 | 1 to 10 | 1 to 10 | –
8 | CSc1ccc(/C=C(\C(=O)c2ccc(Cl)cc2)S(=O)(=O)Cc2ccc(C)cc2)cc1 [Example 437] | 140 to 152 | 25 to 50 | 10 to 25 | –
9 | Cc1ccc(CS(=O)(=O)/C(=C/c2sccc2C)C(=O)c2ccc(Cl)cc2)cc1 [Example 431] | 98 to 105 | 25 to 50 | 25 to 50 | –
10 | O=C(/C(=C\c1c[nH]c2ccccc12)S(=O)(=O)Cc1ccc(F)cc1)c1ccc(Cl)cc1 [Example 406] | > 200 | 50 to 100 | 50 to 100 | –
11 | Cc1ccc(CS(=O)(=O)/C(=C/c2ccc(S(C)(=O)=O)cc2)C(=O)c2ccc(Br)cc2)cc1 [Example 438] | 110 to 112 | 1 to 10 | 10 to 25 | –
